Experimental data as given in patent US8580776B2, “Compositions and methods for treating neurodegenerating diseases” (The Board of Trustees of the University of Illinois, priority 2007, dated 2013).

Tests used:
EAE mice = assay: NA depletion with DSP4 in EAE (MOG35-55 immunized mice); assay type: in vivo; details: DSP4 50 mg/kg i.p. twice one week apart, MOG immunization 2 weeks later; versus vehicle
BACE1, PSEN1, Adam10 = assay: Western blot and PCR analysis of APP processing enzymes in 9 month-old mice; assay type: in vivo; details: data not shown
Experimental: Brain tissue was homogenized in 8M urea. Total protein concentration was determined using the Bradford assay and BSA as standard. Proteins were separated on 8 or 15% SDS page gels, transferred to PVDF membrane and incubated with antibodies: anti-APP^645-694 G369 (1:4000), anti α-tubulin (T-9026, Sigma) (1:5000). Signals were detected using the ECL Kit (Amersham), band intensities calculated using Image J software (ImageJ 1.31V), and normalized to α-tubulin values.
Total cytoplasmic RNA from tissues was isolated using TRIZOL reagent, (Invitrogen/GIBCO); aliquots were converted to cDNA using random hexamer primers, and mRNA levels were estimated by quantitative touchdown PCR (QPCR). PCR conditions were 35 cycles of denaturation at 94° C. for 10 s; annealing at 58-64° C. for 15 s; and extension at 72° C. for 20 s on a Corbett Rotorgene Real-Time PCR unit (Corbett, Australia). PCR was done using Taq DNA Polymerase (Invitrogen), and contained SYBR Green (SybrGreen1 10,000× concentrate, diluted 1:10,000; Molecular Probes, Eugene, Oreg.). Relative mRNA concentrations were calculated from the takeoff point of reactions using manufacturer's software, and were normalized to α-tubulin, β-actin, and glyceraldehyde-3-phosphate dehydrogenase (GDH). Melting curve analysis and agarose gel electrophoresis ensured production of single and corrected size products. The primers used were: […]

CCN(CCCl)Cc1ccccc1Br [DSP4, N-(2-chloroethyl)-N-ethyl-2-bromobenzylamine]
clinical signs of EAE (EAE mice): appeared sooner and were more severe
BACE1, PSEN1, Adam10 mRNA, BACE1 protein, human APP mRNA levels (BACE1, PSEN1, Adam10): did not reveal any significant changes
